From US12396959B2, “Thermoresponsive hydrogel containing polymer microparticles for noninvasive ocular drug delivery” (University of Pittsburgh—Of the Commonwealth System of …, priority 2013, dated 2025)
One block for each compound: values may come before it.

Tests used:
[1] = in vivo; cited from earlier work
[2] = test system: New Zealand White rabbits; assay: Post-mortem T1-weighted MRI after intravitreal injection of Gd-DOTA in thermoresponsive hydrogel; type: in vivo, rabbit; details: 24 h after intravitreal injection
Description: Scans were performed within one hour of sacrifice. Soluble Gd-DOTA without MP encapsulation was largely cleared from the injection site at 24 h, with only 56% and 59% signal intensity (relative to nearby muscle tissue) in the vitreous and anterior chamber, respectively. […] The spatiotemporal distribution of Gd-DOTA into the rest of the eye will also provide valuable data for future controlled release formulations of other ocular therapeutics, such as those targeting the posterior segment of the eye.

[3] = Loading and release of other drugs from microparticles embedded within the gel; type: physicochemical
From the text: The loading and release of other drugs (moxiflxacin and vancomycin) with the microparticles embedded within the gel has also been confirmed.

Compound: Brimonidine tartrate [BT]
- ocular half-life [1]: 28.2 min

- signal intensity relative to nearby muscle tissue, anterior chamber [2]: 59%
- signal intensity relative to nearby muscle tissue, vitreous [2]: 56%
Compound: O=C([O-])CN1CCN(CC(=O)[O-])CCN(CC(=O)O)CCN(CC(=O)[O-])CC1.[Gd+3] [Soluble Gd-DOTA, gadolinium-tetraazocyclododecanetetraacetic acid]

Compound: CN[C@H](CC(C)C)C(=O)N[C@H]1C(=O)N[C@@H](CC(N)=O)C(=O)N[C@H]2C(=O)N[C@H]3C(=O)N[C@H](C(=O)N[C@H](C(=O)O)c4cc(O)cc(O)c4-c4cc3ccc4O)[C@H](O)c3ccc(c(Cl)c3)Oc3cc2cc(c3O[C@@H]2O[C@H](CO)[C@@H](O)[C@H](O)[C@H]2O[C@H]2C[C@](C)(N)[C@H](O)[C@H](C)O2)Oc2ccc(cc2Cl)[C@H]1O [vancomycin]
- loading and release with microparticles embedded within the gel [3]: confirmed

Compound: O=C([O-])CN(CCN(CC(=O)[O-])CC(=O)O)CCN(CC(=O)[O-])CC(=O)O.[Gd+3] [Gd-DTPA]
- ocular half-life [1]: 28.08 min
